Structures are written as SMILES. Read-outs that look alike come from different tables or passages of the source.

The assay deals with T1, F508delCFTR (Homo sapiens, UniProt P13569, DEL508-508).
T1 construct: expressed in transfected cells; host or cells: CFBE41o- human lung-derived epithelial cells (CFBE4lo-F508delCFTR-HRP), doxycycline-inducible
The assay is described as follows: Cell Surface Expression-Horse Radish Peroxidase (CSE-HRP) Assay.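 For Maximum % activity (with co-corrector): co-corrector and positive control are both the same reference corrector at 2 µM.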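 For Maximum % activity (without co-corrector): percent of the 2 µM on-plate positive control corrector response above DMSO.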 The assay is classed as cell-based. As to conditions: for Emax / Maximum % activity (with co-corrector) / Maximum % activity (without co-corrector): maximum at any tested concentration, normalized to on-plate positive control; for Emax: read-out: Maximum % activity (without co-corrector).

[1] abbreviates: test compound without co-corrector.
The mark [2] stands for this setting: test compound without co-corrector, read-out: EC50 (without co-corrector).
Setting [3] is: with co-corrector (2 μM of 3-[(2R,4R)-4-({[1-(2,2-difluoro-1,3-benzodioxol-5-yl)cyclopropyl]carbonyl}amino)-7-methoxy-3,4-dihydro-2H-chromen-2-yl]benzoic acid).
The mark [4] stands for this setting: with co-corrector (2 μM of 3-[(2R,4R)-4-({[1-(2,2-difluoro-1,3-benzodioxol-5-yl)cyclopropyl]carbonyl}amino)-7-methoxy-3,4-dihydro-2H-chromen-2-yl]benzoic acid), read-out: EC50 (with co-corrector).
The mark [5] stands for this setting: CSE-HRP, test compound without co-corrector, read-out: EC50 (without co-corrector).
Setting [6] is: CSE-HRP, with co-corrector (2 μM of 3-[(2R,4R)-4-({[1-(2,2-difluoro-1,3-benzodioxol-5-yl)cyclopropyl]carbonyl}amino)-7-methoxy-3,4-dihydro-2H-chromen-2-yl]benzoic acid), read-out: EC50 (with co-corrector).
Setting [7] is: CSE-HRP, with co-corrector (2 μM).

T1 sequence (P13569 with tags, fused parts or gaps DEL508-508): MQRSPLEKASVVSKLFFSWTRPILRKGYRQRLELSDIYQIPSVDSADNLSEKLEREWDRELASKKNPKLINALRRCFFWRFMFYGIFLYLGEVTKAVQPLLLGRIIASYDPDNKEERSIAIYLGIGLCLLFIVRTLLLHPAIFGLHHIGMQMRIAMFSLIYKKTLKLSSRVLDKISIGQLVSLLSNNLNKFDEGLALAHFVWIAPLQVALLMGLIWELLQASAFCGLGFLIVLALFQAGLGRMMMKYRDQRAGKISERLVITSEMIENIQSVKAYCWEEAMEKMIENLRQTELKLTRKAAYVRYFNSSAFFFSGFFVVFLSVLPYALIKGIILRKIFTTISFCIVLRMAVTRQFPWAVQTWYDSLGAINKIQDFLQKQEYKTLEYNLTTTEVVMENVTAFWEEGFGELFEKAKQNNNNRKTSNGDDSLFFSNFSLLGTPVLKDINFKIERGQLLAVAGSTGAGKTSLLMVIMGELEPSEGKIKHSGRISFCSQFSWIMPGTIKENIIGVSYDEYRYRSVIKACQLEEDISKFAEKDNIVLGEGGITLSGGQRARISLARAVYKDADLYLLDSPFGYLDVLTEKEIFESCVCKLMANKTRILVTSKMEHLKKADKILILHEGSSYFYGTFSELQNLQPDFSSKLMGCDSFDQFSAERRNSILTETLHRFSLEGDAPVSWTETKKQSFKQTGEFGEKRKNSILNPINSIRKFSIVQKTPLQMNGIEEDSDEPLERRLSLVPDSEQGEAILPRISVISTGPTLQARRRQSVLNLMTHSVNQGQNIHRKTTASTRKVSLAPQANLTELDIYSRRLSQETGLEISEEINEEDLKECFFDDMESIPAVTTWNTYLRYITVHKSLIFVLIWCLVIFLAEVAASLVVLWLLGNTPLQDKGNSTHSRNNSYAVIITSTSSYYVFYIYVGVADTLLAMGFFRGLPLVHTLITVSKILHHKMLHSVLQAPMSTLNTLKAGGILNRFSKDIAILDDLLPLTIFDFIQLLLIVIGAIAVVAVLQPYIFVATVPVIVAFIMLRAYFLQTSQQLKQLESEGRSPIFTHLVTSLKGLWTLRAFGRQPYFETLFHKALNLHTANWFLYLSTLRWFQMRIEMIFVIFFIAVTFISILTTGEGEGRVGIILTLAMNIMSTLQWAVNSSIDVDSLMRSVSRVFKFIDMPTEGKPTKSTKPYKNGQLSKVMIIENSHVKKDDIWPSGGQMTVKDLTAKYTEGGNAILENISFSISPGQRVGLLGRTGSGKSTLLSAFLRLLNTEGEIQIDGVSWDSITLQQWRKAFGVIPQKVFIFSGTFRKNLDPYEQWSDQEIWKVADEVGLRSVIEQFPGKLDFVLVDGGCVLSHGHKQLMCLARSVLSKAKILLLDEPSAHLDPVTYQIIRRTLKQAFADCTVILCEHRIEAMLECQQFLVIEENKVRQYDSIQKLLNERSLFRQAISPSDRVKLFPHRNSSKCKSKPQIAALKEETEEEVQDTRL

As a reminder, the EC50 is the midpoint of the concentration-response curve. Take `COc1ccc(C(C)(C)C)cc1CN[C@H]1[C@H](C(C)(C)C)[C@@H](C(=O)O)N(C(=O)C2Cc3ccccc3CO2)[C@H]1c1cccnc1N(C)C` (single isomer, unassigned) [II-480]: the Emax under setting [1] is below 100%. Also, the 50% effective concentration (EC50) fell in the range of 1000 to 10000 nM under setting [2] and 1000 to 10000 nM under setting [4]. Further, the “Maximum % activity (with co-corrector)” value under setting [3] was “+++ (≥350)”.
Consider `COc1ccc(C(C)(C)C)cc1CN[C@H]1[C@H](C(C)(C)C)[C@@H](C(=O)O)N(C(=O)C2Cc3ccccc3CO2)[C@H]1c1cccnc1N(C)C` (single isomer, unassigned) [II-481], for which the “Maximum % activity (without co-corrector)” value under setting [1] was “++ (≥100 and <200)”. The EC50 by setting is: under setting [2], 1000 to 10000 nM; under setting [4], 1000 to 10000 nM. Moreover, the “Maximum % activity (with co-corrector)” value under setting [3] is “+++ (≥350)”.
Take `COc1ccc(C(C)(C)C)cc1CN[C@H]1[C@H](C(C)(C)C)[C@@H](C(=O)O)N(C(=O)C2CCCCO2)[C@H]1c1cccnc1OC(F)F` (single isomer, unassigned) [II-489]: under setting [1], the Emax was in the range of 100 to 200%. For the same compound, the half-maximal effective concentration (EC50) by setting is: under setting [2], 1000 to 10000 nM; under setting [4], 1000 to 10000 nM. Moreover, under setting [3], the “Maximum % activity (with co-corrector)” value is recorded as “+++ (≥350)”.
For `COc1ccc(C(C)(C)C)cc1CN[C@H]1[C@H](C(C)(C)C)[C@@H](C(=O)O)N(C(=O)C2CCCCO2)[C@H]1c1cccnc1OC(F)F` (single isomer, unassigned) [II-490], the EC50 under setting [2] lay within 1000 to 10000 nM. Moreover, the “Maximum % activity (with co-corrector)” value under setting [3] was “+++ (≥350)”.
As for `COc1cc(C(F)(F)F)ccc1CN[C@@H]1[C@@H](C(C)(C)C)[C@H](C(=O)O)N(C(=O)C(C)c2ccccc2)[C@@H]1c1ccccc1` (single isomer, unassigned) [III-112], the Emax under setting [1] is below 100%. Moreover, the concentration for a half-maximal effect (EC50) is, setting by setting: under setting [2], 1000 to 10000 nM; under setting [4], 1000 to 10000 nM. Besides, the “Maximum % activity (with co-corrector)” value (with co-corrector (2 μM)) was “++ (≥150 and <350)”.
`COc1ccc(C(C)(C)C)cc1CN[C@H]1[C@H](C(C)(C)C)[C@@H](C(=O)O)N(C(=O)C(C)n2cc(Cl)c(C)n2)[C@H]1c1ccccc1` (single isomer, unassigned) [III-182]: the concentration for a half-maximal effect (EC50) fell in the range of 1000 to 10000 nM under setting [5] and 1000 to 10000 nM under setting [6]. Moreover, the “Maximum % activity (with co-corrector)” value under setting [7] is reported as “+++ (≥350)”. Further, where the note is “CSE-HRP, without co-corrector”, the “Maximum % activity (without co-corrector)” value is reported as “+++ (≥200)”.
As to `COc1cc(C(F)(F)F)ccc1CN[C@H]1[C@H](C(C)(C)C)[C@@H](C(=O)O)N(C(=O)C2CCCCC2)[C@H]1c1ccccc1OC` (stereo in doubt) [II-50], the concentration for a half-maximal effect (EC50) is below 1000 nM under setting [5] and below 1000 nM under setting [6]. Besides, the “Maximum % activity (with co-corrector)” value under setting [7] is listed as “+++ (≥350)”. The Emax (CSE-HRP, without co-corrector) fell in the range of 100 to 200%.
Turning to `COc1cc(C(F)(F)F)ccc1CN[C@@H]1[C@@H](C(C)(C)C)[C@H](C(=O)O)N(C(=O)C2CCCCC2)[C@@H]1c1ccccc1OC` (stereo in doubt) [III-40], the Emax under setting [1] lay within 100 to 200%. Also, the EC50 under setting [2] fell in the range of 1000 to 10000 nM and the EC50 under setting [4] was below 1000 nM. Besides, the “Maximum % activity (with co-corrector)” value under setting [3] is listed as “+++ (≥350)”.
On to `Cc1cc(C(F)(F)F)cc(N[C@@H]2[C@@H](C(C)(C)C)[C@H](C(=O)O)N(C(=O)C3CCCCC3)[C@@H]2c2ccccc2)n1` [Example 3, (2R,3R,4R,5R)-3-tert-butyl-1-(cyclohexanecarbonyl)-4-{[6-methyl-4-(trifluoromethyl)pyridin-2-yl]amino}-5-phenylpyrrolidine-2-carboxylic acid], for which the EC50 lay within 1000 to 10000 nM under setting [2] and 1000 to 10000 nM under setting [4]. In addition, the “Maximum % activity (with co-corrector)” value (with co-corrector (2 μM)) is “++ (≥150 and <350)”. In addition, the Emax (without co-corrector) was below 100%.
Consider `Cc1cc(C(F)(F)F)cc(N[C@H]2[C@H](C(C)(C)C)[C@@H](C(=O)O)N(C(=O)C3CCCCC3)[C@H]2c2ccccc2)n1` [Example 4, (2S,3S,4S,5S)-3-tert-butyl-1-(cyclohexanecarbonyl)-4-{[6-methyl-4-(trifluoromethyl)pyridin-2-yl]amino}-5-phenylpyrrolidine-2-carboxylic acid], for which the EC50 runs as follows: under setting [2], 1000 to 10000 nM; under setting [4], 1000 to 10000 nM. Further, the “Maximum % activity (with co-corrector)” value (with co-corrector (2 μM)) was “+++ (≥350)”. Moreover, the Emax (without co-corrector) is below 100%.
On to `COc1ccc(C(C)(C)C)cc1CN[C@H]1[C@H](C(C)(C)C)[C@@H](C(=O)O)N(C(=O)C2CCCCC2)[C@H]1c1ccccc1` [Example 7, (2S,3S,4S,5S)-3-tert-butyl-4-{[(5-tert-butyl-2-methoxyphenyl)methyl]amino}-1-(cyclohexanecarbonyl)-5-phenylpyrrolidine-2-carboxylic acid], for which the concentration giving a half-maximal response (EC50) under setting [2] is below 1000 nM and the 50% effective concentration (EC50) under setting [4] was below 1000 nM. Also, for the setting “with co-corrector (2 μM)”, the “Maximum % activity (with co-corrector)” value is reported as “+++ (≥350)”. Where the note is “without co-corrector”, the Emax was above 200%.
Turning to `COc1cc(C(F)(F)F)ccc1CN[C@H]1[C@H](C(C)(C)C)[C@@H](C(=O)O)N(C(=O)C2CCCCC2)[C@H]1c1ccccc1` [Example 8, (2S,3S,4S,5S)-3-tert-butyl-1-(cyclohexanecarbonyl)-4-({[2-methoxy-4-(trifluoromethyl)phenyl]methyl}amino)-5-phenylpyrrolidine-2-carboxylic acid], the EC50 under setting [2] was in the range of 1000 to 10000 nM and the concentration for a half-maximal effect (EC50) under setting [4] was below 1000 nM. Moreover, the “Maximum % activity (with co-corrector)” value (with co-corrector (2 μM)) is on record as “+++ (≥350)”. Further, the Emax (without co-corrector) lay in the range of 100 to 200%.
On to `COc1ccc(C(F)(F)F)cc1CN[C@H]1[C@H](C(C)(C)C)[C@@H](C(=O)O)N(C(=O)C2CCCCC2)[C@H]1c1ccccc1` [Example 9, (2S,3S,4S,5S)-3-tert-butyl-1-(cyclohexanecarbonyl)-4-({[2-methoxy-5-(trifluoromethyl)phenyl]methyl}amino)-5-phenylpyrrolidine-2-carboxylic acid], for which the concentration giving a half-maximal response (EC50) reads like this: under setting [2], below 1000 nM; under setting [4], below 1000 nM. For the same compound, the “Maximum % activity (with co-corrector)” value (with co-corrector (2 μM)) is listed as “+++ (≥350)”. Further, the Emax (without co-corrector) was 100 to 200%.
`COc1cc(C(F)(F)F)ccc1CN[C@H]1[C@H](C(C)(C)C)[C@@H](C(=O)O)N(C(=O)[C@@H]2CCCCO2)[C@H]1c1ccccc1` [Example 10, (2S,3S,4S,5S)-3-tert-butyl-4-({[2-methoxy-4-(trifluoromethyl)phenyl]methyl}amino)-1-[(2S)-oxane-2-carbonyl]-5-phenylpyrrolidine-2-carboxylic acid]: the EC50 under setting [2] fell in the range of 1000 to 10000 nM and the EC50 under setting [4] fell in the range of 1000 to 10000 nM. Besides, under “with co-corrector (2 μM)”, the “Maximum % activity (with co-corrector)” value is listed as “+++ (≥350)”. The Emax (without co-corrector) was above 200%.
In the case of `COc1ncc(C(F)(F)F)cc1CN[C@H]1[C@H](C(C)(C)C)[C@@H](C(=O)O)N(C(=O)C2CCCCC2)[C@H]1c1ccccc1` [Example 12, (2S,3S,4S,5S)-3-tert-butyl-1-(cyclohexanecarbonyl)-4-({[2-methoxy-5-(trifluoromethyl)pyridin-3-yl]methyl}amino)-5-phenylpyrrolidine-2-carboxylic acid], the EC50 under setting [2] is below 1000 nM and the EC50 under setting [4] is below 1000 nM. Further, the “Maximum % activity (with co-corrector)” value (with co-corrector (2 μM)) was “+++ (≥350)”. Besides, the Emax (without co-corrector) fell in the range of 100 to 200%.
For `COc1ccc(C(C)(C)C)cc1CN[C@H]1[C@H](C(C)(C)C)[C@@H](C(=O)O)N(C(=O)OC(C)C)[C@H]1c1ccccc1OC` [Example 13, (2S,3S,4S,5S)-3-tert-butyl-4-{[(5-tert-butyl-2-methoxyphenyl)methyl]amino}-5-(2-methoxyphenyl)-1-{[(propan-2-yl)oxy]carbonyl}pyrrolidine-2-carboxylic acid], the half-maximal effective concentration (EC50) under setting [2] lay in the range of 1000 to 10000 nM and the concentration for a half-maximal effect (EC50) under setting [4] lay in the range of 1000 to 10000 nM. Also, the “Maximum % activity (with co-corrector)” value (with co-corrector (2 μM)) is recorded as “+++ (≥350)”. Also, the Emax (without co-corrector) lay in the range of 100 to 200%.
As for `COc1ncc(C(F)(F)F)cc1CN[C@H]1[C@H](C(C)(C)C)[C@@H](C(=O)O)N(C(=O)C2CCCCC2)[C@H]1c1ccccc1OC(F)F` [Example 14, (2S,3S,4S,5S)-3-tert-butyl-1-(cyclohexanecarbonyl)-5-[2-(difluoromethoxy)phenyl]-4-({[2-methoxy-5-(trifluoromethyl)pyridin-3-yl]methyl}amino)pyrrolidine-2-carboxylic acid], the EC50 is, setting by setting: under setting [2], 1000 to 10000 nM; under setting [4], 1000 to 10000 nM. Further, the “Maximum % activity (with co-corrector)” value (with co-corrector (2 μM)) is on record as “+++ (≥350)”. The Emax (without co-corrector) is below 100%.
Turning to `COc1ccc(C(C)(C)C)cc1CN[C@H]1[C@H](C(C)(C)C)[C@@H](C(=O)O)N(S(=O)(=O)c2ccccc2)[C@H]1c1ccccc1` [Example 15, (2S,3S,4S,5S)-1-(benzenesulfonyl)-3-tert-butyl-4-{[(5-tert-butyl-2-methoxyphenyl)methyl]amino}-5-phenylpyrrolidine-2-carboxylic acid], the half-maximal effective concentration (EC50) under setting [2] is 1000 to 10000 nM and the EC50 under setting [4] fell in the range of 1000 to 10000 nM. Moreover, the “Maximum % activity (with co-corrector)” value (with co-corrector (2 μM)) was “+++ (≥350)”. The Emax (without co-corrector) was 100 to 200%.
`COc1ncc(C2CCC2)cc1CN[C@H]1[C@H](C(C)(C)C)[C@@H](C(=O)O)N(C(=O)C2CCCCC2)[C@H]1c1ccccc1` [Example 16, (2S,3S,4S,5S)-3-tert-butyl-4-{[(5-cyclobutyl-2-methoxypyridin-3-yl)methyl]amino}-1-(cyclohexanecarbonyl)-5-phenylpyrrolidine-2-carboxylic acid]: the EC50 by setting is: under setting [2], below 1000 nM; under setting [4], below 1000 nM. Moreover, the “Maximum % activity (with co-corrector)” value (with co-corrector (2 μM)) was “+++ (≥350)”. Moreover, the Emax (without co-corrector) was above 200%.
